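Step 1: Grow cells in 96-well plates. Step 2: Expose to compound for 48 hours at 5 concentrations. Step 3: Interpolate endpoints linearly; if unreached, use highest concentration. Here, GI50 denotes the concentration required for 50% inhibition of growth.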 The source made the active and inactive calls. Rule as the data show it: active = GI50 up to about 1.1 µM and inactive = higher.
Legend:
Test in all cases: NCI-60 cell line screen, 48 h
TK-10 = test system: TK-10
HOP-92 = test system: HOP-92
A549 = test system: A549
XF498 = test system: XF498
SR = test system: SR
NCI-H460 = test system: NCI-H460
SK-MEL-5 = test system: SK-MEL-5
ACHN = test system: ACHN
RPMI-8226 = test system: RPMI-8226
SF-268 = test system: SF-268
U-251 = test system: U-251
OVCAR-3 = test system: OVCAR-3
HOP-62 = test system: HOP-62
IGROV-1 = test system: IGROV-1
SNB-19 = test system: SNB-19
UO-31 = test system: UO-31
EKVX = test system: EKVX

SMILES | GI50 (TK-10) | GI50 (HOP-92) | GI50 (A549) | GI50 (XF498) | GI50 (SR) | GI50 (NCI-H460) | GI50 (SK-MEL-5) | GI50 (ACHN) | GI50 (RPMI-8226) | GI50 (SF-268) | GI50 (U-251) | GI50 (OVCAR-3) | GI50 (HOP-62) | GI50 (IGROV-1) | GI50 (SNB-19) | GI50 (UO-31) | GI50 (EKVX)
CC(=O)OCC1OC(OCc2ccccc2)C(Br)C(OC(C)=O)C1OC(C)=O (configuration not stated) | > 100 µM (inactive) | > 100 µM (inactive) | > 100 µM (inactive) | > 100 µM (inactive) | > 100 µM (inactive) | > 100 µM (inactive) | > 100 µM (inactive) | > 100 µM (inactive) | > 100 µM (inactive) | > 100 µM (inactive) | > 100 µM (inactive) | > 100 µM (inactive) | > 100 µM (inactive) | > 100 µM (inactive) | > 100 µM (inactive) |  | 
Cc1cccc(NC(=O)CC#N)c1Cl | > 100 µM (inactive) | > 100 µM (inactive) | > 100 µM (inactive) | > 100 µM (inactive) | > 100 µM (inactive) |  |  | > 100 µM (inactive) | > 100 µM (inactive) | > 100 µM (inactive) | > 100 µM (inactive) | > 100 µM (inactive) |  | > 100 µM (inactive) | > 100 µM (inactive) | 99.3 µM (inactive) | > 100 µM (inactive)
CCCCSN1C(=O)c2ccccc2C1=S | > 100 µM (inactive) | 41.1 µM (inactive) | > 100 µM (inactive) | > 100 µM (inactive) |  | > 100 µM (inactive) | 60.5 µM (inactive) | > 100 µM (inactive) | 21 µM (inactive) | 48.9 µM (inactive) | > 100 µM (inactive) | > 100 µM (inactive) | > 100 µM (inactive) | > 100 µM (inactive) | > 100 µM (inactive) | 53.3 µM (inactive) | > 100 µM (inactive)
CCOC1(COP(=O)(OCc2ccccc2)OCc2ccccc2)COC(COP(=O)(OCc2ccccc2)OCc2ccccc2)(OCC)CO1 (configuration not stated) | > 100 µM (inactive) | 2.99 µM (inactive) | 9.02 µM (inactive) | > 100 µM (inactive) | > 100 µM (inactive) | 95.7 µM (inactive) | > 100 µM (inactive) | 7.82 µM (inactive) | 74.6 µM (inactive) | > 100 µM (inactive) | > 100 µM (inactive) | > 100 µM (inactive) | > 100 µM (inactive) | > 100 µM (inactive) | > 100 µM (inactive) |  | 2.32 µM (inactive)
CC(=O)O[C@]1(C)OC(=O)[C@@H](C)N1[N+](=O)[O-] | > 100 µM (inactive) |  | > 100 µM (inactive) | < 0.01 µM (active) | 34.9 µM (inactive) | 39.2 µM (inactive) | > 100 µM (inactive) | 60 µM (inactive) | > 100 µM (inactive) |  | > 100 µM (inactive) | > 100 µM (inactive) | > 100 µM (inactive) | > 100 µM (inactive) | > 100 µM (inactive) | > 100 µM (inactive) | > 100 µM (inactive)
Cc1ccc([N+]2=NC(c3ccc([N+](=O)[O-])cc3)=NN(c3ccccc3)C2)cc1 | > 100 µM (inactive) |  | > 100 µM (inactive) | > 100 µM (inactive) | 46.7 µM (inactive) | 41 µM (inactive) | 33.2 µM (inactive) | > 100 µM (inactive) | 57.4 µM (inactive) | > 100 µM (inactive) | 72.8 µM (inactive) | > 100 µM (inactive) | > 100 µM (inactive) | 94.4 µM (inactive) | 75.3 µM (inactive) | 86.7 µM (inactive) | 43.7 µM (inactive)

— ChEMBL document CHEMBL1201862, “PubChem BioAssay data set” (2004)
